According to the METLIN SMRT retention time set (Domingo-Almenara et al. 2019):

Test: gradient 5% acetonitrile 3 min, to 50% in 2 min, to 85% in 15 min, held 3 min, 100 µL/min
Settings: column: Zorbax Extend-C18 2.1 x 50 mm; eluents: water / acetonitrile, 0.1% formic acid
Method in brief: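 Retention times of pure standards were taken from adduct peaks that were selected by computer and manually inspected. Over 3 months, mixtures of ~100 molecules were run by HPLC–quadrupole time-of-flight mass spectrometry in positive and negative ionization mode. The Zorbax Extend-C18 column (2.1 × 50 mm, 1.8 μm) ran at 100 μL/min in water and acetonitrile, each containing 0.1% formic acid, with 40 μL dead volume and 900 μL dwell volume.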

Structure (SMILES) | RP-LC retention time
CCCc1noc(-c2ccnc(-n3cnc(C(=O)N4CCSCC4)c3)c2)n1 | 873 s
Cc1cccc(NC(=O)Nc2nccn(-c3ccc4c(c3)CCC4)c2=O)c1 | 1140 s
COc1ccc(C2CCN(S(C)(=O)=O)CC2)cc1 | 845 s
O=c1n(Cc2ccc(Cl)cc2)nc2ccc(S(=O)(=O)N3CCCCC3)cn12 | 1000 s
COc1ccc(NC(=O)C2CCN(C(=O)C3Sc4ccccc4NC3=O)CC2)cc1Cl (stereo not drawn) | 795 s
Cc1ccc(-c2ccc(-n3nc(C)c(S(=O)(=O)NCC(C)C)c3C)nn2)cc1 | 1160 s
CC(=O)Nc1nc(-c2ccc(S(=O)(=O)N3CCOCC3)cc2)cs1 | 735 s
OCCOCCNCc1ccc(-c2ccc(Cl)cc2)o1 | 644 s
COc1cc(-c2noc(C3CC(=O)N(c4cccc(Cl)c4)C3)n2)cc(OC)c1OC (stereo not drawn) | 1010 s
COCCNC(=O)Cn1nc(-c2ccc(Cl)cc2)c2c(C)onc2c1=O | 749 s
Cc1noc(C)c1S(=O)(=O)N1CCC(n2nc(-c3ccccc3)nc2C)C1 (stereo not drawn) | 806 s
CCOC(=O)c1c(C)[nH]c(C(=O)N2CCCC(C(=O)NCc3cccc(Cl)c3)C2)c1C (stereo not drawn) | 848 s
Cc1nc(-c2ccccc2)sc1C(=O)N1CCN(c2ccc(-n3ccnc3C)nn2)CC1 | 572 s
O=C(C1CC1)N1CCCC1c1nc2ccccc2s1 (stereo not drawn) | 768 s
COc1cccc(C2Cn3nnc(-c4nc(-c5ccc(C(C)(C)C)cc5)no4)c3CO2)c1 (stereo not drawn) | 1450 s
COc1ccc2c3c([nH]c2c1)[C@H](CC(C)C)N1C(=O)[C@H](CCC(=O)OC(C)(C)C)NC(=O)[C@@H]1C3 | 1100 s
O=C(c1ccc([N+](=O)[O-])cc1)N(C(=O)N1CCCCC1)c1cccc(Cl)c1 | 953 s
CC(C)(C)c1ccc(-c2noc(Cn3c(=O)n(Cc4ccccc4)c(=O)c4sccc43)n2)cc1 | 1330 s
CNC(=O)C1CCN(S(=O)(=O)Cc2ccccc2)CC1 | 655 s
COc1cccc(CN2CCC(Oc3ccccc3-c3nc(-c4ccncc4)no3)C2)n1 (stereo not drawn) | 686 s
Cn1cc(S(=O)(=O)N2CCC(C(=O)NCc3ccccc3)CC2)cc1C(=O)N1CCCC1 | 1040 s
Cc1ccc(C2=NC3(CCN(C(=O)c4ccccc4C)CC3)ON2)cc1 | 855 s
CCc1cc(C2CCCN2C(=O)Nc2ccc(C(=O)OC)cc2)on1 (stereo not drawn) | 801 s

Structure (SMILES) | RP-LC retention time
Cc1nc(-c2csc(S(=O)(=O)N3CCC(C(=O)Nc4ccc(F)cc4F)CC3)c2)no1 | 920 s
Cc1nc(NC(=O)Cn2nc3c(cc2=O)CCCC3)sc1C | 721 s
Cc1c(NC(=O)c2ccc([N+](=O)[O-])cc2Cl)c(=O)n(-c2ccccc2)n1C | 652 s
CSc1ccc(NC(=O)c2cn3c(n2)COCC3)cc1 | 684 s
CCn1cc(C(=O)NCc2ccccc2C)c2cccnc21 | 809 s
Cc1cc(NC(=O)c2cn(C)nc2S(=O)(=O)N2CCSCC2)ccc1F | 960 s
O=C(NC1CCN(c2cc(-c3cccs3)[nH]n2)C1)c1ccc(F)c(F)c1 (stereo not drawn) | 752 s
CCc1nc2cc(-c3noc(Cc4ccccc4Cl)n3)ccc2o1 | 1170 s
COC(=O)c1ccc2c(C(C)=O)c[nH]c2c1 | 642 s
COc1cccc(-c2noc(C3CCCN3C(=O)Nc3cc(OC)ccc3OC)n2)c1 (stereo not drawn) | 849 s
CCCCNc1nc(N)ncc1[N+](=O)[O-] | 790 s
Cc1cc(NC(=O)N2CCCC(Cn3cnc4cccnc43)C2)ccc1Br (stereo not drawn) | 784 s
Cc1ccc(C(=O)N[C@@H]2CN(S(C)(=O)=O)C[C@H]2CN(C)C)s1 | 582 s
COCCn1ncc(N2CCC(C(=O)N3CCc4ccccc43)C2)cc1=O (stereo not drawn) | 713 s
Cc1noc(C)c1CNC(=O)Cc1ccc(F)cc1 | 713 s
CCNc1cc(N2CCC(CCC(=O)N3CCN(c4ncccn4)CC3)CC2)ncn1 | 626 s
CCCN(CC1CCOC1)S(=O)(=O)c1cccc(C)c1 (stereo not drawn) | 931 s
CN(C)c1cccc(C(=O)NCc2[nH]nc3ccccc23)c1 | 580 s
COc1ccc(S(=O)(=O)N2CCC(n3cnnc3-c3ccccc3)CC2)cc1 | 783 s
Cn1cc(C(=O)N2CC(c3noc(C4CCCN4CC4CC4)n3)C2)cn1 (stereo not drawn) | 549 s
COc1ccc(CNc2ccc(S(=O)(=O)C(C)(C)C)nn2)cc1OC | 711 s
Cn1c(=O)c2cc(C(=O)Nc3ccc(F)c(Cl)c3)sc2n(C)c1=O | 847 s
O=C(NCc1cccc(C(F)(F)F)c1)C1CCN(c2cc(N3CCOCC3)ncn2)CC1 | 672 s

Structure (SMILES) | RP-LC retention time
CC(C)CN1CCn2cc(C(=O)NC(C)c3ccccc3)nc2C1 (stereo not drawn) | 613 s
Cc1ccc(S(=O)(=O)N2CCc3nc[nH]c3C2)cc1 | 591 s
Cc1cc(=O)n(CC(=O)Nc2cccc(Cl)c2)c(-c2ccccc2)n1 | 1080 s
CCCC(=O)NCc1nc(-c2ccccc2Cl)no1 | 755 s
COc1cc2c(cc1OC)C(Nc1nc(-c3ccccc3)cs1)=NC(C)(C)C2 | 878 s
COc1ccc(NC(=O)Cn2cnc3nc4c(cc3c2=O)CCCC4)c(OC)c1 | 709 s
CCS(=O)(=O)c1ccc2c(c1)N(Cc1nc(-c3ccccc3OC)no1)C(=O)CO2 | 810 s
COCCN(CC(=O)N1CCc2sccc2C1COc1cccc(F)c1)C(=O)C(C)C (stereo not drawn) | 912 s
COc1ccccc1Nc1c(-c2ccc(C(=O)O)cc2)nc2cnccn12 | 730 s
CCC1CCCCN1C(=O)c1cnc2nc(C)ccc2c1Nc1ccc2c(c1)OCCO2 (stereo not drawn) | 666 s
O=C1NC2(CCN(C(=O)Nc3ccccc3Cl)CC2)Oc2ccccc21 | 765 s
COC[C@@H]1CN(Cc2c(C)n[nH]c2C)C[C@H]1c1ccncc1 | 559 s
Cc1ccccc1-c1csc(Cc2nc(-c3ccc(Cl)cc3)no2)n1 | 1330 s
CCCCN(C)C(=O)C1CCN(c2nccc(C)n2)CC1 | 674 s
CCc1onc(C)c1C1CCCN1C(=O)c1ccc(F)cc1 (stereo not drawn) | 736 s
Cc1nn(C)cc1CN(C)C(=O)c1ccc(-c2ccccc2)cc1 | 738 s
COc1ccc(-c2nc(NCc3cccnc3)c3ccccc3n2)cc1 | 574 s
C=CCN1C(=O)COc2ccc(-c3nc(NC(=O)c4cccc(C)c4)sc3C)cc21 | 1110 s
COCc1c(C(=O)O)nnn1-c1ccc(OC)c(Cl)c1 | 706 s
CCSc1nc2ccc(NS(=O)(=O)c3ccc(F)c(Cl)c3)cc2s1 | 1110 s
CCCN1C(=O)COc2cc(-c3noc(C(=O)NCCCc4ccccc4)n3)ccc21 | 1090 s
Cc1cc(C)cc(NC(=O)Cn2cnc3nc(N4CCC(C(=O)NC5CC5)CC4)sc3c2=O)c1 | 713 s
